Measured values published in patent US9696306B2, “Methods of reducing levels of tau” (The Trustees of Columbia University in the City of New York, priority 2011, dated 2017).
Where a name gives a salt, the structure may show the parent alone.

System: Aβ40
Assay: Screen of NIH clinical collection compounds for reduction of Aβ40 in Tg2576 mES cell derived neurons (Aβ40 ELISA)
Format: cell-based, mouse
Set-up: Percent Inhibition: concentration or dose not given beside the values
Settings: Aβ40 in conditioned media vs DMSO control; neurons treated on day 8 after plating for 24 hours
Description: In certain embodiments, the inhibitor of the present invention is identified by an assay directed to detecting inhibitors of Aβ40 production. For example, but not by way of limitation, such assays can include assays such as those prepared as follows. First, mouse ES cells isolated from Tg2576 mice are subjected to directed differentiation as previously described. After dissociation of embryoid bodies, neurons are plated in poly-D-lysine and laminin coated 96 well black plates at a density of 1.5×10^5 cells/cm2 which is 45,000 cells/well. Media is changed to N2 containing media after 4 hours and again the next day after plating. Two days after plating, media is changed to B27 containing media which is replaced every 2 days after that. On day 8 after plating the mouse ES derived neurons are treated with the compound of interest. […] In certain embodiments the compounds are incubated with the cells for 24 hours in 150 μl B27 media. In certain embodiments each plate of ES derived neurons is treated with NCC compounds, DMSO (negative control), and the positive controls for Aβ reduction BACE inhibitor IV (Calbiochem) and Compound E. After 24 hours, 100 μl conditioned media can then be removed and frozen at −80° C. until further analysis for Aβ40 content. The remaining cells in 50 μl media can be subjected to cell viability assay CellQuanti Blue (BioAssay Systems). In certain embodiments, conditioned media can be subjected to Aβ40 quantification, e.g., by using Aβ40 ELISA (Invitrogen).
Mouse ES cells isolated from. Tg2576 mice were subjected to directed differentiation as previously described. After dissociation of embryoid bodies, neurons were plated in poly-D-lysine and laminin coated 96 well black plates at a density of 1.5×10^5 cells/cm2 which is 45,000 cells/well. Media was changed to N2 containing media after 4 hours and again the next day after plating. Two days after plating, media was changed to B27 containing media which was replaced every 2 days after that. […] Each plate of ES derived neurons was treated with NCC compounds, DMSO (negative control), and the positive controls for Aβ reduction BACE inhibitor IV (Calbiochem) and Compound E. After 24 hours, 100 μl conditioned media was removed and frozen at −80° C. until further analysis for Aβ40 content. The remaining cells in 50 μl media were subjected to cell viability assay CellQuanti Blue (BioAssay Systems). Conditioned media was subjected to Aβ40 quantification using Aβ40 ELISA (Invitrogen). Compounds which lowered Aβ40 levels in the conditioned media were identified as hits if they reduced Aβ40 by 4 standard deviations of the negative control (DMSO) but maintained cell viability. Cell viability was defined by CellQuanti Blue fluorescent signal maintained within two standard deviations of fluorescent signal from the control treated (DMSO) cells. High potency hits were defined by reducing Aβ40 40% or more (signal 60% of DMSO control).
Hits were defined as lowering Aβ by 4 standard deviations below the negative control (DMSO) treated condition but maintaining cell viability within 2 standard deviations of control.

Compared with `CN1C(C(=O)Nc2ccccn2)=C(O)c2ccccc2S1(=O)=O` [piroxicam], `CC(Oc1c(Cl)cccc1Cl)C1=NCCN1` (centres unmarked) [lofexidine] is higher in “Percent Inhibition” value: 9.5% for the first, 17% for the second.

Going from medroxyprogesterone to `C[N+]1(C)CCN(c2ccccc2)CC1.[I-]` [1,1,-dimethyl-4-phenylpiperazinium iodide], the “Percent Inhibition” value falls from 20% to 9%.

Compared with `c1cncc([C@@H]2CCCN2)c1` [nornicotine], `C=CC1=C(C(=O)O)N2C(=O)[C@@H](NC(=O)/C(=N\OCC(=O)O)c3csc(N)n3)[C@H]2SC1` [cefixime] is lower in “Percent Inhibition” value: 50% for the first, 19% for the second.

First: salbutamol sulfate
Second: CN(C)CCc1c[nH]c2ccc(Cn3cncn3)cc12 [rizatriptan benzoate]
The “Percent Inhibition” value of the first is higher: 70% for the first, 10% for the second.

First: Cc1ncc([N+](=O)[O-])n1CC(C)O (centres unmarked) [1-(2-methyl-5-nitro-imidazol-1-yl)-propan-2-ol]
Second: Nc1nc(O)c2ncn(CCC(CO)CO)c2n1 [peniciclovir]
The “Percent Inhibition” value of the first is higher: 12% for the first, 11% for the second.

Compared with `CC(=O)O[C@]1(C(C)=O)CC[C@H]2[C@@H]3C=C(C)C4=CC(=O)CC[C@]4(C)[C@H]3CC[C@@]21C` [megestrol acetate], `O[C@@H]1CCCC[C@H]1N1CCC(c2ccccc2)CC1` [vesamicol hcl] is higher in “Percent Inhibition” value: 20% for the first, 52% for the second.

Compared with `CC(C(=O)O)c1ccc(CC2CCCC2=O)cc1` (centres unmarked) [loxoprofen], `NNCCc1ccccc1` [phenelzine sulfate] is higher in “Percent Inhibition” value: 9% for the first, 70% for the second.

Going from `COc1cc(-c2ccc(=O)[nH]n2)ccc1OC(F)F` [pyridazinone, 6-[4-difluoromethoxy)-3-methoxyphenyl]] to `O=C(O)C(Cl)Cl` [dichloroacetic acid], the “Percent Inhibition” value falls from 50% to 11.5%.

Compared with `COc1cc(OC)c(C(=O)CCCN2CCCC2)c(OC)c1` [buflomedil], `O=[N+]([O-])c1cccc2cn[nH]c12` [7-nitroindazole] is higher in “Percent Inhibition” value: 13% for the first, 17% for the second.

Going from `O=C(NCCN1CCOCC1)c1ccc(Cl)cc1` [4-chloro-n-(2-morpholin-4-yl-ethyl)-benzamide] to `CNS(=O)(=O)Cc1ccc2[nH]cc(CCN(C)C)c2c1` [sumatriptan succinate], the “Percent Inhibition” value falls from 21% to 8%.

First: Cc1ncc([N+](=O)[O-])n1CC(O)CCl (centres unmarked) [orinidazole]
Second: CN1C(=O)CN=C(c2ccccc2)c2cc([N+](=O)[O-])ccc21 [nimetanzepam]
The “Percent Inhibition” value of the first is lower: 9% for the first, 13% for the second.

Going from `C[C@@H]1C[C@H]2[C@@H]3C[C@H](F)C4=CC(=O)C(Cl)=C[C@]4(C)[C@@]3(F)[C@@H](O)C[C@]2(C)[C@@]1(O)C(=O)CO` [halometasone] to `COc1cc(CNC(=O)CCCC/C=C/C(C)C)ccc1O` [capsaicin], the “Percent Inhibition” value rises from 14% to 62%.

`OC[C@H]1O[C@@H](Oc2cc(O)cc(/C=C/c3ccc(O)cc3)c2)[C@H](O)[C@@H](O)[C@@H]1O` [piceid] and `CN1C(=O)CN=C(c2ccccc2)c2cc(Cl)ccc21` [diazepam] are the same in “Percent Inhibition” value: 11% for the first, 11% for the second.

First: CC(=O)OCC(=O)NCCCOc1cccc(CN2CCCCC2)c1 [roxatidine acetate]
Second: CN1C2CC(OC(=O)C(CO)c3ccccc3)CC1C1OC12 (stereo not drawn) [benzeneacetic acid, alpha-(hydroxymethyl)-, 9-methyl-3-oxa-9-azatricyclo[3,3,1,2,4]non-7-yl ester]
The “Percent Inhibition” value of the first is lower: 12% for the first, 67% for the second.

First: O=C1N(c2ccccc2)c2ccccc2C1(Cc1ccncc1)Cc1ccncc1 [2h-indol-2-one,1,3-dihydro-1-phenyl-3,3-bis(4-pyridinylmethyl)]
Second: Cc1nc2ccccn2c(=O)c1CCN1CCC(C(=O)c2ccc(F)cc2)CC1 [pirenperone]
The “Percent Inhibition” value of the first is higher: 22% for the first, 11% for the second.

For `CC[C@H]1OC(=O)[C@H](C)[C@@H](O[C@H]2C[C@@](C)(OC)[C@@H](O)[C@H](C)O2)[C@H](C)[C@@H](O[C@@H]2O[C@H](C)C[C@H](N(C)C)[C@H]2O)[C@](C)(OC)C[C@@H](C)C(=O)[C@H](C)[C@@H](O)[C@]1(C)O` [clarithromycin], the “Percent Inhibition” value was 22%.

Same assay, conditions: Mus musculus, Neuron; Aβ40 lowering; high priority hits confirmed from independent compound sources; read-out: IC50

For `NNCCc1ccccc1` [phenelzine sulfate], the IC50 was 2500 nM.
